# Test results published in PubChem BioAssay (NCI).
#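 Exposure lasted 48 hours, with cells grown in 96-well plates and compounds tested at five concentrations. At the TGI there is no net growth.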
# Columns and labels:
# Assay in all cases: NCI anticancer screen, dose series, 48 h
# HCT-15 colon = test system: HCT-15 colon
# KM12 colon = test system: KM12 colon
# SNB-19 CNS = test system: SNB-19 CNS
# PC-3 prostate = test system: PC-3 prostate
# MCF7 breast = test system: MCF7 breast
# DU-145 prostate = test system: DU-145 prostate
# HL-60(TB) leukemia = test system: HL-60(TB) leukemia
# A549 NSCLC = test system: A549 NSCLC
# OVCAR-4 ovarian = test system: OVCAR-4 ovarian
# LOX IMVI melanoma = test system: LOX IMVI melanoma
# OVCAR-8 ovarian = test system: OVCAR-8 ovarian
# NCI-H226 lung = test system: NCI-H226 lung
# UACC-62 melanoma = test system: UACC-62 melanoma
# HCT-116 colon = test system: HCT-116 colon
# NCI-H460 lung = test system: NCI-H460 lung
# T-47D breast = test system: T-47D breast
# HOP-62 NSCLC = test system: HOP-62 NSCLC
# MALME-3M melanoma = test system: MALME-3M melanoma
# EKVX NSCLC = test system: EKVX NSCLC
# CCRF-CEM leukemia = test system: CCRF-CEM leukemia
SMILES,TGI (HCT-15 colon),TGI (KM12 colon),TGI (SNB-19 CNS),TGI (PC-3 prostate),TGI (MCF7 breast),TGI (DU-145 prostate),TGI (HL-60(TB) leukemia),TGI (A549 NSCLC),TGI (OVCAR-4 ovarian),TGI (LOX IMVI melanoma),TGI (OVCAR-8 ovarian),TGI (NCI-H226 lung),TGI (UACC-62 melanoma),TGI (HCT-116 colon),TGI (NCI-H460 lung),TGI (T-47D breast),TGI (HOP-62 NSCLC),TGI (MALME-3M melanoma),TGI (EKVX NSCLC),TGI (CCRF-CEM leukemia)
CN(Cc1cnc2nc(N)nc(N)c2n1)c1ccc(C(=O)NCCS(=O)(=O)O)cc1,> 100 µM,> 100 µM,> 100 µM,> 100 µM,> 100 µM,> 100 µM,> 100 µM,> 100 µM,> 100 µM,> 100 µM,> 100 µM,> 100 µM,> 100 µM,> 100 µM,> 100 µM,> 100 µM,> 100 µM,> 100 µM,> 100 µM,–
Nc1ccccc1-c1noc(=O)[nH]1,> 100 µM,> 100 µM,> 100 µM,> 100 µM,> 100 µM,> 100 µM,–,> 100 µM,> 100 µM,> 100 µM,> 100 µM,> 100 µM,> 100 µM,> 100 µM,–,> 100 µM,> 100 µM,–,> 100 µM,> 100 µM
Cc1ccc(N=N/C(=N/NC(=O)c2cc(Cl)ccc2O)c2ccc(N(CCC#N)CCC#N)cc2C)cc1,> 100 µM,> 100 µM,> 100 µM,> 100 µM,> 100 µM,> 100 µM,> 100 µM,> 100 µM,97.7 µM,–,54.7 µM,63.7 µM,59.7 µM,54.4 µM,68.8 µM,56.2 µM,> 100 µM,47.8 µM,> 100 µM,> 100 µM
N#CC(C#N)=C1C(=Cc2ccc(OCCCCCCCCCCSSCCCCCCCCCCOc3ccc(C=C4C(=C(C#N)C#N)c5ccccc5C4=C(C#N)C#N)cc3)cc2)C(=C(C#N)C#N)c2ccccc21,31.6 µM,78.1 µM,–,47.8 µM,48 µM,47.7 µM,2.36 µM,31 µM,52.9 µM,35.6 µM,> 100 µM,63.6 µM,–,30.8 µM,44.7 µM,> 100 µM,47.6 µM,–,43.1 µM,–
N#Cc1cccc2c1Sc1ccccc1N2,> 100 µM,> 100 µM,> 100 µM,> 100 µM,> 100 µM,> 100 µM,> 100 µM,> 100 µM,–,36.5 µM,> 100 µM,> 100 µM,> 100 µM,> 100 µM,> 100 µM,> 100 µM,–,> 100 µM,97.4 µM,> 100 µM
CC1OC(OC2C(OC(=O)[C@]34CCC(C)(C)C[C@H]3C3=CC[C@@H]5[C@@]6(C)CC[C@H](OC7OC(C(=O)O)C(O)C(O)C7O)C(C)(C)[C@@H]6CC[C@@]5(C)[C@]3(C)C[C@H]4O)OCC(O)C2O)C(O)C(O)C1OC1OCC(OC2OCC(O)C(O)C2O)C(O)C1O (some centres undefined),28 µM,14 µM,18.4 µM,19.3 µM,17.6 µM,23.8 µM,18.1 µM,15.5 µM,9.31 µM,24.2 µM,32.3 µM,22.9 µM,23.7 µM,16.6 µM,32.6 µM,26.3 µM,27.1 µM,25.3 µM,15.2 µM,–
CN(C)CCNc1ccc([N+](=O)[O-])c2sc3ccccc3c(=O)c12,23.6 µM,> 100 µM,43.2 µM,21.6 µM,15.2 µM,31.5 µM,12.5 µM,20.2 µM,9.27 µM,–,19.9 µM,51.2 µM,16.8 µM,11.3 µM,7.49 µM,> 100 µM,8.36 µM,17.9 µM,25.2 µM,> 100 µM
COc1ccc(N2CN3OC(=O)N(c4ccc(OC)cc4)[C@@]3(c3ccccc3)C2)cc1,> 100 µM,> 100 µM,> 100 µM,67.3 µM,> 100 µM,> 100 µM,67.9 µM,> 100 µM,> 100 µM,> 100 µM,> 100 µM,> 100 µM,> 100 µM,> 100 µM,> 100 µM,69.2 µM,> 100 µM,> 100 µM,> 100 µM,–
O=[N+]([O-])C(=C(Cl)Cl)C(Cl)=C(Cl)Cl,0.908 µM,5.51 µM,11.2 µM,4.66 µM,0.992 µM,24 µM,0.0573 µM,19.6 µM,0.482 µM,0.0351 µM,5.14 µM,3.53 µM,1.75 µM,0.849 µM,5.21 µM,0.289 µM,25.3 µM,0.126 µM,11.2 µM,–
O=C1NC(N/N=C/c2ccccc2)=N/C1=C\c1ccco1,> 100 µM,> 100 µM,> 100 µM,> 100 µM,> 100 µM,> 100 µM,> 100 µM,81.3 µM,> 100 µM,–,34.9 µM,> 100 µM,> 100 µM,> 100 µM,45.5 µM,> 100 µM,50.6 µM,> 100 µM,> 100 µM,> 100 µM
